The test system of one experiment is DEN-2. In words: microbe, parasite or virus in culture. The conditions noted are these: SW13, read-out: Concentration required to give 80% plaque reduction.
The test system of the next experiment is PICH. In words: microbe, parasite or virus in culture. The conditions noted are these: Vero, read-out: Concentration required to give 80% plaque reduction.
The next experiment has as its system RVFV. Kind of experiment: microbe, parasite or virus in culture. Conditions: Rift Valley fever virus, SW13, read-out: Concentration required to give 80% plaque reduction. It counts as cell-based.
The next experiment relates to YF. Kind of experiment: microbe, parasite or virus in culture. The format is cell-based. Conditions: MK2, read-out: Concentration required to give 80% plaque reduction.
The test system of the next experiment is VEE. In words: microbe, parasite or virus in culture. The conditions noted are these: Vero; read-out: Concentration required to give 80% plaque reduction. It counts as cell-based.
A further experiment has as its system Trypanosoma rhodesiense. In words: In vitro antitrypanosomal screening, semi-automated microtest system. It counts as cell-based.
A further experiment deals with Plasmodium falciparum. In words: In vitro antimalarial screening, semi-automated microdilution technique. It counts as cell-based. The conditions noted are these: column head in nanograms/ml, footnote in μg/ml, read-out: ED50 (out-of-range entries). The text has this:
Desjardins, R. E.; Canfield, C. J.; Haynes, J. D.; and Chulay, J. D.: Quantitative Assessment of Antimalarial Activity In Vitro by A Semi-automated Microdilution Technique. Antimicrob. Ag. & Chemother., 16:710-718, 1979.
(In general: Broth dilution looks for growth in wells or tubes with falling amounts of substance.)

For the next experiment, the system named is malaria. Conditions: A Survey of Antimalarial Drugs, 1941-1945; cited from earlier work.
[1] abbreviates: 3H-Thymidine, read-out: ED50, 3H-Thymidine (out-of-range entries).

Converted amounts (≈) assume the structure as drawn. Where two headings read alike, the source gives them in different places.

On to `NC(=O)c1ncn([C@@H]2O[C@H](CO)[C@@H](O)[C@H]2O)n1` [Ribavirin], for which the EC80 in the experiment with DEN-2 is 100 µg/mL (≈ 409 µM); in the experiment on PICH, 100 µg/mL (≈ 409 µM); in the experiment with RVFV, 25 µg/mL (≈ 102 µM); in the experiment with YF it was 50 µg/mL (≈ 205 µM); in the experiment with VEE it was 100 µg/mL (≈ 409 µM).

With `Nc1ccc(S(=O)(=O)Nc2ncccn2)cc1` [aluminum sulfadiazine], the IC50 in the experiment with Trypanosoma rhodesiense (setting [1]) is over 12.5 µg/mL.

Turning to `Nc1cccc(S(=O)(=O)Nc2ncc(Cl)cn2)c1` [metachloridine, 5-chloro-2-metanilamidopyrimidine], the IC50 with Trypanosoma rhodesiense (setting [1]) was over 12.5 µg/mL; in the experiment with Trypanosoma rhodesiense (14C-Leucine, read-out: ED50, 14C-Leucine (out-of-range entries)) it was over 12.5 µg/mL; in the experiment with Plasmodium falciparum it was over 12.5 µg/mL. Moreover, in the experiment on malaria, the “antimalarial activity in screening tests” value is on record as “sufficiently active in screening tests for antimalarial effects”.

Take `Nc1ccc(S(=O)(=O)Nc2ncccn2)cc1` [sulfadiazine, 2-sulfanilaminidopyrimidine]: in the experiment with Plasmodium falciparum, the IC50 is over 12.5 µg/mL.

In the case of `COc1cnc(NS(=O)(=O)c2ccc(N)cc2)nc1` [sulfameter], the IC50 with Trypanosoma rhodesiense (setting [1]) is over 12.5 µg/mL.

Values taken from patent US4415565A, “Silver metachloridine in treatment of infections” (The United States of America as represented by the …, priority 1981, dated 1983).
